In PubChem BioAssay AID256 (DTP/NCI, 2004):
Toxic doses and inconclusive results are not listed. How the source made its calls: active means survival T/C of 150% or more; inactive means T/C below 125% in these data.

System: CD2F1 mice, L1210 leukemia ip, survival T/C
Experiment: NCI In Vivo Anticancer Drug Screen. Data for tumor model L1210 Leukemia (intraperitoneal) in CD2F1 (CDF1) mice
Details: endpoint: mean survival time, schedule: Q01DX005 (ip), vehicle: water, higher = longer survival
Outline: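 In this screen, transplantable tumors were grown in mice given either the compound or its vehicle. Results were expressed as the treated measurement relative to the control measurement.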

Measured: T/C

Nc1nc(N2CCCCC2)c2ncn(C3OC(CO)C(O)C3O)c2n1 (stereo not given)
inactive: dose: 12.5 mg/kg/injection 106 % of control | dose: 25.0 mg/kg/injection 101 % of control | dose: 50.0 mg/kg/injection 112 % of control | dose: 100.0 mg/kg/injection 96 % of control | dose: 200.0 mg/kg/injection 108 % of control
